From patent US20220347075A1, “PEPTIDE BASED COSMETIC OR DERMATOLOGICAL TREATMENT OF THE SKIN AND ITS APPENDAGES” (Sederma, priority 2019, published 2022)
Residues, ends and D or L forms follow the SMILES beside them. *: point of attachment. Palmitoyl = CCCCCCCCCCCCCCCC(=O)*

Experiments:
Format in all cases: cell-based
[1] = test system: Propionibacterium acnes; assay: Propionibacterium acnes growth inhibition test (OD 600 nm); conditions: for Time necessary to reach an OD of 1 (P. acnes growth): control 28 hours, anaerobic, 37° C.
Experimental: Propionibacterium acnes Growth Inhibition Test Principle: suspensions of Propionibacterium acnes of equivalent density are cultured in a suitable medium in the presence (test case) or absence (control case) of the peptide according to the invention, in anaerobic condition, at 37° C. Samples are taken at regular intervals to measure the OD at 600 nm for following the growth of the bacterial population over time. The growth curve of each culture is thus established. Growth of the bacterium Propionibacterium acnes: time necessary to reach an OD of 1 in the control case and in the presence of the peptide according to the invention (N=2 independent experiments; n=2 cultures per case): […]

[2] = test system: normal human keratinocytes (NHK) exposed to UVB; assay: Immunoenzymatic assay (ELISA) of pro-inflammatory mediators of NHK exposed to UVB
Experimental: Study by Immune Enzymatic Assay on NHK Culture
Principle: NHKs in culture and at confluence are brought into contact with the peptide according to the invention (or its solvent) for 24 hours in a medium allowing their survival. Then the cell layers are irradiated with UVB in a physiological buffer and again brought into contact with the products to be tested for 24 hours. At the end of this incubation, the culture media are assayed by ELISA to know the amounts of pro-inflammatory mediators produced by these cells in response to irradiation. The results are compared to the control. A cell respiration test is conducted on the fixed mat to assess the number of cells and standardize the results. A study of variances and a Student's t test are carried out for judging the significance of the results.
To test the active ingredients, keratinocytes were placed in culture under light stress conditions (application of UVB radiation) to mimic an experimental skin micro-inflammation. In this situation, a significant decrease in their secretome of inflammation mediators will be interpreted in the sense of a restorative and protective action of the skin.
Variation compared to the control of the secretome of pro-inflammatory mediators by NHKs exposed to UVB (by immunoenzymatic assay)/effect of the peptide according to the invention at 4, 6 and 8 ppm: […]

[3] = test system: normal human keratinocytes (NHK); assay: LC-MS/MS protein study on NHK culture; conditions: 5 ppm; 7 days; p < 0.01
From the text: Liquid Chromatography/Mass Spectrometry (LC-MS/MS) Study on NHK Culture
Principle: the same culture protocol as for the DNA-Array is used but with a longer culture time (7 days) because the protein productions take longer to be able to be detected with this method in LC-MS/MS. The peptide concentration applied to the cells is 5 ppm (vs. control case). The culture medium of the NHK (n=3) is changed every 3 days. At the end of this contact, the cells are lysed for extracting the proteins and to analyze them in the form of ground material by a method combining the action of a protease on the ground material, the separation of the fragments by liquid chromatography coupled with mass spectrometry, and then the identification and concentration of pre-existing proteins according to the nature and quantity of the fragments obtained (LC-MS/MS). To carry out LC-MS/MS analysis on equivalent amounts of proteins, the protein concentration is measured on the ground material. The results are expressed as an expression ratio between the treated case and the control case. A ratio greater than 1.5 is considered as an increase in protein production (+50% compared to the control). A study of variances and a Student's t test is carried out for judging the significance of the results.

[4] = test system: normal human keratinocytes (NHK); assay: DNA microarray (DNA-Array) gene expression on NHK culture; conditions: 7 ppm
Experimental: Study Using DNA Microarray Technology (DNA-Array) on NHK Culture
Principle: the peptide according to the invention (7 ppm) is brought into contact for 24 or 48 hours with confluent NHKs (vs. control case). Then the NHK mats are rinsed, and the cells are crushed to extract their mRNA. These mRNAs are then converted into DNA sequences which are analyzed after depositing on DNA chips and amplification by a method like QRT-PCR. The mRNA variations due to the peptide are compared to the control case (peptide solvent). The results are expressed as an expression ratio between the treated case and the control case. A ratio greater than 1.5 is as an induction of gene expression (+50% compared to the control).

[5] = test system: normal human keratinocytes (NHK); assay: Molecular biology study (qRT-PCR) on NHK culture; conditions: 5 ppm, 24 hours, RT-PCR
Experimental: Molecular Biology Study on NHK Culture
Principle: in this test, confluent keratinocytes are brought into contact with the peptide according to the invention for 24 hours. The cells are then frozen to dryness and their RNAs are extracted, converted into DNA, then analyzed by qRT-PCR (“Quantitative real time reverse transcription polymerase chain reaction”). The results are expressed as an expression ratio between the treated case and the control case. A ratio greater than 1.5 is as an induction of gene expression (+50% compared to the control). A study of variances and a Student's t test are carried out for judging the significance of the results (n=4 for each condition).

[6] = test system: normal human keratinocytes (NHK); assay: Immunocytofluorescence labeling of involucrin, loricrin, filaggrin on NHK culture; conditions: 5 ppm, 7 days, immunofluorescence
Experimental: Study by Immunocytofluorescence Labeling on KHN Culture
Principle: confluent NHKs (n=3) are cultured as above for 7 days in the presence or absence (control) of the peptide according to the invention then the cell layers are fixed and labels by immunocytochemistry are carried out using antibodies directed against proteins characteristic of the maturation of the epidermis: involucrine, loricrin and filaggrin. Photos are captured using a fluorescence microscope and images analyzed using appropriate software. The results are compared with those of the control. The number of cells on the mats is evaluated by the Hoechst method (DNA staining), to reduce the fluorescence value to the number of cells. A variance study and a Student's t test are carried to judge the significance of the results.
1.1.1. Induction of the formation of involucrin, loricrin and filaggrin in NEM (by immunofluorescence)/effect of 5 ppm of the peptide according to the invention: […]

For `CCCCCCCCCCCCCCCC(=O)N[C@@H](CCCCN)C(=O)N[C@H](C(=O)N[C@H](C(=O)N[C@@H](CCCCN)C(=O)N[C@@H](CO)C(=O)O)[C@@H](C)O)[C@@H](C)O` [Pal-KTTKS, palmitoyl-lysyl-threonyl-threonyl-lysyl-serine] (Palmitoyl-KTTKS-OH), the “Time necessary to reach an OD of 1 (P. acnes growth)” value (from here on “Time necessary … (P. acnes growth)”) ([1]; 6 ppm of peptide) was 42 h, the “Growth of Propionibacterium acnes (result in words)” value ([1]; 6 to 12 ppm) was “strongly and dose-dependently inhibits the growth” and the “Time necessary … (P. acnes growth)” value ([1]; 9 ppm of peptide) was 54 h. For the same molecule, the “Time necessary … (P. acnes growth)” value ([1]; 12 ppm of peptide) was 85.5 h, the “IL6 secretion, variation vs control” value ([2]; 4 ppm, ns) was −13% and the “PGE2 secretion, variation vs control” value ([2]; 4 ppm, p < 0.01) was −41%. For the same molecule, the “IL6 secretion, variation vs control” value ([2]; 6 ppm, p < 0.01) was −68% (p < 0.01), the “PGE2 secretion, variation vs control” value ([2]; 6 ppm, p < 0.01) was −69% (p < 0.01) and the “IL6 secretion, variation vs control” value ([2]; 8 ppm, p < 0.01) was −84% (p < 0.01). For the same molecule, the “PGE2 secretion, variation vs control” value ([2]; 8 ppm, p < 0.01) was −84% (p < 0.01), the “ADGRG1 protein, variation vs control” value [3] was “×1.63;” and the “ASPRV1 protein, variation vs control” value [3] was “×2.35; p < 0.01”. For the same molecule, the “CALM5 protein, variation vs control” value [3] was “×1.61; p < 0.01”, the “CRYAB (alpha-crystallin B) protein, variation vs control” value [3] was “×2.24; p < 0.01” and the “FLG (filaggrin) protein, variation vs control” value [3] was “×2.66; p < 0.01”. For the same molecule, the “KRT1 protein, variation vs control” value [3] was “×1.58; p < 0.01”, the “KRT6B protein, variation vs control” value [3] was “×2.07; p < 0.01” and the “KRT9 protein, variation vs control” value [3] was “×1.54; p < 0.01”. For the same molecule, the “KRT10 protein, variation vs control” value [3] was “×1.75; p < 0.01”, the “KRT15 protein, variation vs control” value [3] was “×2.02; p < 0.01” and the “LOR (loricrin) protein, variation vs control” value [3] was “×2.92; p < 0.01”. The “SPINK5 protein, variation vs control” value [3] was “×1.58; p < 0.01”, the “TCHH (trichohyalin) protein, variation vs control” value [3] was “×1.54; p < 0.01” and the “THBS1 protein, variation vs control” value [3] was “×1.98;”. The “ABHD5 gene expression, variation vs control” value ([4]; 24 h contact) was “×2.10”, the “ADGRG1 gene expression, variation vs control” value ([4]; 24 h contact) was “×1.92” and the “ALOX12B gene expression, variation vs control” value ([4]; 24 h contact) was “×2.48”. For the same molecule, the “ALOXE3 gene expression, variation vs control” value ([4]; 24 h contact) was “×2.92”, the “ASPRV1 gene expression, variation vs control” value ([4]; 24 h contact) was “×3.35” and the “BMP2 gene expression, variation vs control” value ([4]; 24 h contact) was “×3.63”. The “BMP6 gene expression, variation vs control” value ([4]; 24 h contact) was “×13”, the “ELOVL4 gene expression, variation vs control” value ([4]; 24 h contact) was “×5.41” and the “FN1 gene expression, variation vs control” value ([4]; 24 h contact) was “×3.38”. The “GSK3B (glycogen synthase kinase 3 beta) gene expression, variation vs control” value ([4]; 24 h contact) was “×1.64”, the “GSKA (glycogene synthase kinase 3 alpha) gene expression, variation vs control” value ([4]; 24 h contact) was “×1.57” and the “IL37 gene expression, variation vs control” value ([4]; 24 h contact) was “×3.60”. For the same molecule, the “LCE2C gene expression, variation vs control” value ([4]; 24 h contact) was “×26.30”, the “LCE3A gene expression, variation vs control” value ([4]; 24 h contact) was “×65.26” and the “LCE3B gene expression, variation vs control” value ([4]; 24 h contact) was “×123.00”. For the same molecule, the “LCE3D gene expression, variation vs control” value ([4]; 24 h contact) was “×110.46”, the “LCE3E gene expression, variation vs control” value ([4]; 24 h contact) was “×135.99” and the “LOR gene expression, variation vs control” value ([4]; 24 h contact) was “×1.86”. The “PPARD gene expression, variation vs control” value ([4]; 24 h contact) was “×1.97”, the “PRSS8 gene expression, variation vs control” value ([4]; 24 h contact) was “×3.72” and the “SPRR2A gene expression, variation vs control” value ([4]; 24 h contact) was “×8.71”. For the same molecule, the “SPRR2B gene expression, variation vs control” value ([4]; 24 h contact) was “×58.44”, the “SPRR2C gene expression, variation vs control” value ([4]; 24 h contact) was “×6.30” and the “SPRR2D gene expression, variation vs control” value ([4]; 24 h contact) was “×7.87”. For the same molecule, the “SPRR2E gene expression, variation vs control” value ([4]; 24 h contact) was “×6.47”, the “SPRR2F gene expression, variation vs control” value ([4]; 24 h contact) was “×6.00” and the “SPRR2G gene expression, variation vs control” value ([4]; 24 h contact) was “×13.43”. The “SPRR3 gene expression, variation vs control” value ([4]; 24 h contact) was “×1.90”, the “SPRR4 gene expression, variation vs control” value ([4]; 24 h contact) was “×2.95” and the “TGM1 gene expression, variation vs control” value ([4]; 24 h contact) was “×1.70”. The “CDSN gene expression, variation vs control” value ([4]; 24 hours of contact) was “×3.36”, the “CGNL1 gene expression, variation vs control” value ([4]; 24 hours of contact) was “×3.37” and the “CLDN4 gene expression, variation vs control” value ([4]; 24 hours of contact) was “×5.16”. For the same molecule, the “CLDN7 gene expression, variation vs control” value ([4]; 24 hours of contact) was “×4.47”, the “CLDN12 gene expression, variation vs control” value ([4]; 24 hours of contact) was “×2.68” and the “CLDN15 gene expression, variation vs control” value ([4]; 24 hours of contact) was “×4.80”. For the same molecule, the “CLDN17 gene expression, variation vs control” value ([4]; 24 hours of contact) was “×113.20”, the “CLDN23 gene expression, variation vs control” value ([4]; 24 hours of contact) was “×3.69” and the “KLK14 gene expression, variation vs control” value ([4]; 24 hours of contact) was “×1.79”. The “OCLN gene expression, variation vs control” value ([4]; 24 hours of contact) was “×5.91”, the “TJP1 gene expression, variation vs control” value ([4]; 24 hours of contact) was “×2.15” and the “CERS1 gene expression, variation vs control” value ([4]; 48 h contact) was “×3.48”. For the same molecule, the “CRNN gene expression, variation vs control” value ([4]; 48 h contact) was “×4.73”, the “TCHH gene expression, variation vs control” value ([4]; 48 h contact) was “×4.87” and the “SOD2 gene expression, variation vs control” value ([4]; 48 hours contact) was “×2.93”. For the same molecule, the “CRYAB (alpha-crystallin B) gene expression, variation vs control” value ([5]; p < 0.01) was “×3.47; p < 0.01”, the “Involucrine gene expression, variation vs control” value ([5]; p < 0.01) was “×1.64; p < 0.01” and the “Transglutaminase 1 gene expression, variation vs control” value ([5]; p < 0.05) was “×1.82; p < 0.05”. The “Filaggrin: % of variation/control” value ([6]; p < 0.01) was “+310%; p < 0.01”, the “Loricrin: % of variation/control” value ([6]; p < 0.01) was “+128%; p < 0.01” and the “Involucrin: % of variation/control” value ([6]; p < 0.05) was “+1057%; p < 0.05”.
